Cl.N[C@@H](Cc1ccccc1)C(=O)OCc1ccccc1
solubility (mole fraction)
Settings	283.15 K	288.15 K	293.15 K	298.15 K	303.15 K	313.15 K	323.15 K
in acetone	8e-05	–	0.000134	–	0.000224	0.000347	0.000511
in acetonitrile	5.4e-05	0.000115	0.000188	0.000262	0.000365	–	–
in ethanol	0.00311	–	0.00396	–	0.00491	0.00625	0.00832
in ethyl acetate	–	2.6e-05	3.8e-05	–	6.3e-05	0.000116	0.000181
in isobutanol	–	0.00056	0.000879	–	0.00121	0.00174	0.00256
in isopropanol	0.000417	–	0.000588	–	0.000882	0.00123	0.00178
in methanol	0.0158	–	0.0186	–	0.0223	0.0274	0.0324
in n-butanol	0.0011	–	0.0015	–	0.00191	0.00263	0.0039
in n-pentanol	0.000703	–	0.00103	–	0.00158	0.00213	0.00307
in n-propanol	0.00168	–	0.00203	–	0.00281	0.00386	0.00515
in water	0.000969	–	0.0012	–	0.0015	0.00197	0.00266
